In patent US6914045B2, “Glycopeptide antibiotics” (Wyeth Holdings Corporation, priority 2001, dated 2005):
Values after ≈ are worked out from the molar mass of the structure shown. Numbered stars: 1 amine (or outer) side, 2 acyl side, 3 side chain; on linkers, the order of the positions; unused ones are H or OH. Square brackets hold non-standard residues; d marks the D form. Peptide text beside a SMILES is read from it. ξ: configuration not given here. X1 = N=C1NCC(C(O)C(N[*:1])C(=O)[*:2])N1C1OC(CO)C(O)C(O)C1O; ξEnduracididine(βξ-OH,4'ξ) = N=C1NCC(C(O)C(N)C(=O)O)N1

Columns and labels:
Assay in all cases: in vitro antibacterial evaluation, MIC by broth dilution
Assay type in all cases: cell-based
[1] = tested on: Enterococcus sp.; conditions: broth dilution, 18 hours at 35° C.
Procedure, shortened: (§1)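 Test organisms, which included recent clinical isolates resistant to methicillin, penicillin and/or vancomycin, were inoculated at 5×10^5 CFU/mL into Muller-Hinton II […] containing antibiotic at 64-0.06 μg/mL. Minimum inhibitory concentrations were then read as the lowest level inhibiting growth.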

[2] = tested on: Streptococcus sp.; conditions: broth dilution, 18 hours at 35° C.
Procedure, shortened: as §1

[3] = tested on: Escherichia coli; conditions: 18 hours at 35° C.
Procedure, shortened: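 MIC = lowest antibiotic concentration preventing visible growth; inoculum 5×10^5 CFU/mL; drug range 64-0.06 μg/mL; Muller-Hinton II […]; NCCLS M7-A2 guidance.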

[4] = tested on: Staphylococcus sp.; conditions: broth dilution, 18 hours at 35° C.
Procedure, shortened: as §1

- MIC Enterococcus avium (GC 4558) ([1]; Enterococcus avium (GC 4558)): >64 µg/mL
- MIC Enterococcus faecalis (ATCC 29212) ([1]; Enterococcus faecalis (ATCC 29212)): >64 µg/mL
- MIC Enterococcus faecalis (GC 4553) ([1]; Enterococcus faecalis (GC 4553)): >64 µg/mL
- MIC Enterococcus faecalis (GC 4554) ([1]; Enterococcus faecalis (GC 4554)): >64 µg/mL
- MIC Enterococcus faecalis (GC 6189) ([1]; Enterococcus faecalis (GC 6189)): >64 µg/mL
- MIC Enterococcus faecium (GC 2243) ([1]; Enterococcus faecium (GC 2243)): >64 µg/mL
- MIC Enterococcus faecium (GC 4556) ([1]; Enterococcus faecium (GC 4556)): >64 µg/mL
- MIC Enterococcus faecium (GC 4557) ([1]; Enterococcus faecium (GC 4557)): 64 µg/mL (≈ 66.9 µM)
- MIC Enterococcus faecalis (ATCC 29212) ([1]; strain ATCC 29212): >64 µg/mL
- MIC Enterococcus faecalis (GC 2242) ([1]; strain GC 2242): >64 µg/mL
- MIC Enterococcus faecium (GC 2243) ([1]; strain GC 2243): >64 µg/mL
- MIC Enterococcus faecalis (GC 2691) ([1]; strain GC 2691): >64 µg/mL
- MIC Enterococcus faecalis (GC 3059) ([1]; strain GC 3059): >64 µg/mL
- MIC Enterococcus faecalis (GC 4552) ([1]; strain GC 4552): >64 µg/mL
- MIC Enterococcus faecalis (GC 4553) ([1]; strain GC 4553): >64 µg/mL
- MIC Enterococcus faecalis (GC 4554) ([1]; strain GC 4554): >64 µg/mL
- MIC Enterococcus faecium (GC 4556) ([1]; strain GC 4556): >64 µg/mL
- MIC Enterococcus faecium (GC 4557) ([1]; strain GC 4557): 64 µg/mL (≈ 66.9 µM)
- MIC Enterococcus avium (GC 4558) ([1]; strain GC 4558): >64 µg/mL
- MIC Enterococcus faecalis (GC 6189) ([1]; strain GC 6189): >64 µg/mL
- MIC Streptococcus pneumoniae (ATCC 6301) ([2]; strain ATCC 6301): 64 µg/mL (≈ 66.9 µM)
- MIC Streptococcus pneumoniae (GC 1894) ([2]; strain GC 1894): 64 µg/mL (≈ 66.9 µM)
- MIC Streptococcus pyogenes (GC 4563) ([2]; strain GC 4563): 64 µg/mL (≈ 66.9 µM)
- MIC Streptococcus agalactiae (GC 4564) ([2]; strain GC 4564): >64 µg/mL
- MIC Streptococcus pneumoniae (GC 4565) ([2]; strain GC 4565): >64 µg/mL
- MIC Escherichia coli (ATCC 25922) ([3]; Escherichia coli (ATCC 25922)): 64 µg/mL (≈ 66.9 µM)
- MIC Escherichia coli (GC 4559) ([3]; Escherichia coli (GC 4559)): 64 µg/mL (≈ 66.9 µM)
- MIC Escherichia coli (GC 4560) ([3]; Escherichia coli (GC 4560)): 32 µg/mL (≈ 33.4 µM)
- MIC Coagulase Negative Staphylococcus (GC 4547) [4]: 64 µg/mL (≈ 66.9 µM)
- MIC Coagulase Negative Staphylococcus (GC 4548) [4]: >64 µg/mL
- MIC Coagulase Negative Staphylococcus (GC 4549) [4]: 64 µg/mL (≈ 66.9 µM)
- MIC Coagulase Negative Staphylococcus (GC 4551) [4]: >64 µg/mL
- MIC Coagulase Negative Staphylococcus (GC 6257) [4]: 64 µg/mL (≈ 66.9 µM)
- MIC Staphylococcus aureus (ATCC 29213) [4]: >64 µg/mL
- MIC Staphylococcus aureus (GC 1131) [4]: >64 µg/mL
- MIC Staphylococcus aureus (GC 3051) [4]: >64 µg/mL
- MIC Staphylococcus aureus (GC 3053) [4]: >64 µg/mL
- MIC Staphylococcus aureus (GC 4541) [4]: >64 µg/mL
- MIC Staphylococcus aureus (GC 4542) [4]: >64 µg/mL
- MIC Staphylococcus aureus (GC 4544) [4]: >64 µg/mL
- MIC Staphylococcus aureus (GC 4545) [4]: >64 µg/mL
- MIC Staphylococcus aureus-SMITH (GC 4543) [4]: >64 µg/mL
- MIC Staphylococcus aureus (ATCC 29213) ([4]; strain ATCC 29213): >64 µg/mL
- MIC Staphylococcus aureus (GC 1131) ([4]; strain GC 1131): >64 µg/mL
- MIC Staphylococcus aureus (GC 3051) ([4]; strain GC 3051): >64 µg/mL
- MIC Staphylococcus aureus (GC 3053) ([4]; strain GC 3053): >64 µg/mL
- MIC Staphylococcus aureus (GC 4541) ([4]; strain GC 4541): >64 µg/mL
- MIC Staphylococcus aureus (GC 4542) ([4]; strain GC 4542): >64 µg/mL
- MIC Staphylococcus aureus (GC 4544) ([4]; strain GC 4544): >64 µg/mL
- MIC Staphylococcus aureus (GC 4545) ([4]; strain GC 4545): >64 µg/mL
- MIC Coagulase Negative Staphylococcus (GC 4547) ([4]; strain GC 4547): 64 µg/mL (≈ 66.9 µM)
- MIC Coagulase Negative Staphylococcus (GC 4548) ([4]; strain GC 4548): >64 µg/mL
- MIC Coagulase Negative Staphylococcus (GC 4549) ([4]; strain GC 4549): 64 µg/mL (≈ 66.9 µM)
- MIC Coagulase Negative Staphylococcus (GC 4551) ([4]; strain GC 4551): >64 µg/mL
- MIC Coagulase Negative Staphylococcus (GC 6257) ([4]; strain GC 6257): 64 µg/mL (≈ 66.9 µM)
- MIC Staphylococcus aureus-SMITH (GC 4543) ([4]; strain SMITH GC 4543): >64 µg/mL
Compound: N=C1NCC(C(O)C2NC(=O)C(Cc3ccc(O)cc3)NC(=O)C(Cc3ccccc3)NC(=O)CNC(=O)C(CO)NC(=O)C(C(O)C3CNC(=N)N3C3OC(CO)C(O)C(O)C3O)NC2=O)N1 (stereo not drawn) [Example 279a, Cyclo[glycylphenylalanyltyrosyl-3-(2-iminoimidazolidin-4-yl)seryl-3-(3-hexopyranosyl-2-iminoimidazolidin-4-yl)serylseryl]] (cyclo(GFY[ξEnduracididine(βξ-OH,4'ξ)][X1]S); configuration not given here)
- MIC Staphylococcus haemolyticus (GC 4546) [4]: 64 µg/mL (≈ 66.9 µM)
- MIC Staphylococcus haemolyticus (GC 4546) ([4]; strain GC 4546): 64 µg/mL (≈ 66.9 µM)
